Data reported in US20200283728A1, “MODIFIED T CELLS AND USES THEREOF” (MUSC FOUNDATION FOR RESEARCH DEVELOPMENT, priority 2017, published 2020).

How the values were obtained:
Format in all cases: cell-based, mouse
[1] = tested on: ICOS-activated Th17 cells; test: Cytokine production of ICOS-stimulated TRP-1 Th17 cells expanded with inhibitors (intracellular FACS); details: 8 days of expansion, vs un-treated Th17 cells
Procedure: (§1) Expansion of Th17 cells with Wnt/β-catenin and PI3K inhibitors in vitro: TRP-1 splenocytes were activated with irradiated (10Gy) C57BL/6 splenocytes pulsed with TRP-1 peptide (1 μM) added at a 5:1 ratio in 24-well plates (1 mL media containing 1.5×10^6 cells/well). TRP-1 splenocytes were co-stimulated with soluble ICOS agonist (Clone 398.4A, BioLegend) and polarized toward Th17 phenotype as describe above. For in vitro expansion from day 0 of culture 10 μM Ly294002 (Cayman Chemical) or 10 μM CAL-101 (Selleckchem) and/or 60 μM indomethacin (Sigma-Aldrich) was added. Also dimethylosulfoxide 0.01% (Sigma-Aldrich) was added as a control. Th17 cultures were also supplemented with hrIL-2 (100 IU/mL) and rmIL-23 ([…]; R&D). Medium, including cytokines and inhibitors was refreshed every 2-3 days.
Surface staining of Th17 cells was performed with anti-CD4-APCCy7, anti-Vβ14-FITC (BD Biosciences) anti-CD62L-APC, anti-CD44-PerCPCy5.5, anti-CCR6-PE, anti-CD69-PECy7, anti-CCR7-PE, anti-CD27-PE, anti-CD28-PerCPCy5.5, anti-ICOS-PE and anti-CD25-PECy7/FITC (BioLegend) and viability stain (Invitrogen) on day 8. For all intracellular staining of cytokines (anti-IL-17 PerCPCy5.5, anti-IFN-γ-v450, anti-IL-2-FITC, anti-IL-21-APC, anti-IL-22-PE, anti-TNF-α-FITC; BioLegend) and transcription factors (anti-RORγt-APC, anti-cMaf-PerCPCy5.5, anti-STAT-3-PE, anti-FoxP3-FITC/PE, anti-T-bet-v450; eBiosciences), cells were stimulated for 4-5 h with 50 ng/mL PMA and 750 ng/mL ionomycin (Sigma-Aldrich). Additional antibodies used include: CD127-PECy7 clone A019D5, CD25-APCCy7 clone BC96, CD4-APCCy7 OKT4, CD45RO-APC clone UCHL1, CD62L-FITC clone DREG-56, CD8-PerCPCy5.5 clone SKI, TIM3-PE clone F38-2E2 (biolegend); CCR7-PECy7 clone CCR7, CD8-V450 clone RPA-T8, PD1-FITC clone M1H4, (BD Biosciences). Antibodies used for mouse cell analysis: CD127-PE/V450 clone A7R34, CD25-FITC clone 7D4, CD44-PerCPCy5.5/FITC clone IM7, CD69-PECy7 clone HI.2F3, CD8-PerCPCy5.5 clone 53-6.7, CD8-PECy7 clone YTS156.7.7, PD1-PerCPCy5.5 clone 29F.1A12 V[…]13-PE/APC clone MR12-3/MR12-4 (Biolegend), CD4-APCCy7 clone RM4-5, CD62L-APC clone MEL-14, KLRG1-APC/V450 clone 2F1 (BD). After 1 h, Monensin (BioLegend) was added per manufacturer's instructions. After surface staining, intracellular staining for cytokines and transcription factors was performed using Fixation and Permeabilization buffers (BioLegend) and Foxp3 Staining Buffers (eBioscience), respectively. Flow cytometry acquisition was performed on a FACSVerse or Accuri (BD Bioscience). Data were analyzed with FlowJo software (TreeStar). For experiments with sorted cells, CD8^+Vb13^+ T cells were sorted from pmel-1 cultures using Dynabeads untouched mouse CD8^+ T cell kit (Invitrogen) and a FACSAria cell sorting machine (BD Biosciences).

[2] = tested on: ICOS-activated Th17 cells; test: Cytokine secretion of Th17 cells three days after priming (ELISA); details: day 3 after priming
Procedure: as §1, with “TRP-1” left out, “days. Cytokine levels were measured using the mouse IL-17A, INF-γ, IL-2, IL-9, IL-10, IL-21, IL-22, CCL-20, GM-CSF ELISA kits (R&D) following the manufacturer's protocol.” for “days.”

[3] = tested on: ICOS-activated Th17 cells; test: Memory and regulatory phenotype of ICOS-stimulated Th17 cells expanded with inhibitors (flow cytometry); details: day 8 in vitro
Procedure: as §1
Surface staining of Th17 cells was performed with anti-CD4-APCCy7, anti-Vβ14-FITC (BD Biosciences) anti-CD62L-APC, anti-CD44-PerCPCy5.5, anti-CCR6-PE, anti-CD69-PECy7, anti-CCR7-PE, anti-CD27-PE, anti-CD28-PerCPCy5.5, anti-ICOS-PE and anti-CD25-PECy7/FITC (BioLegend) and viability stain (Invitrogen) on day 8. For all intracellular staining of cytokines (anti-IL-17 PerCPCy5.5, anti-IFN-γ-v450, anti-IL-2-FITC, anti-IL-21-APC, anti-IL-22-PE, anti-TNF-α-FITC; BioLegend) and transcription factors (anti-RORγt-APC, anti-cMaf-PerCPCy5.5, anti-STAT-3-PE, anti-FoxP3-FITC/PE, anti-T-bet-v450; eBiosciences), cells were stimulated for 4-5 h with 50 ng/mL PMA and 750 ng/mL ionomycin (Sigma-Aldrich). Additional antibodies used include: CD127-PECy7 clone A019D5, CD25-APCCy7 clone BC96, CD4-APCCy7 OKT4, CD45RO-APC clone UCHL1, CD62L-FITC clone DREG-56, CD8-PerCPCy5.5 clone SKI, TIM3-PE clone F38-2E2 (biolegend); CCR7-PECy7 clone CCR7, CD8-V450 clone RPA-T8, PD1-FITC clone M1H4, (BD Biosciences). […] Data were analyzed with FlowJo software (TreeStar). […]

[4] = CAL-101 10 μM, Indo 60 μM, Ly294002 10 μM

COc1ccc2c(c1)c(CC(=O)O)c(C)n2C(=O)c1ccc(Cl)cc1 [Indo, indomethacin]
IFN-γ production [1, 4]: did not impact
IL-17A production [1, 4]: did not impact
IL-22 production [1]: increased
TNF-α production [1]: increased
CCL-20 secretion [2]: decreased
GM-CSF secretion [2]: no difference
IFN-γ secretion [2]: decreased
IL-2 secretion [2]: no difference
IL-9 secretion [2]: decreased
IL-10 secretion [2]: no difference
IL-17A secretion [2]: decreased
IL-21 secretion [2]: no difference
central memory phenotype (CD44^highCD62L^high) [3]: did not impact their memory phenotype
